Reference: paper PMC3126109 (Biochemistry, 2010)
“And” between values parts separate entries of the source, which are not always exact repeats. Identical values can stand only once.

How the values were obtained:
[1] = molecular target: T1, Pyrococcus horikoshii biotin protein ligase (PhBPL) (Pyrococcus horikoshii, UniProt O57883); test: Steady state fluorescence titration of PhBPL with ligand; format: binding; conditions: for blue shift of emission maximum / quenching of intrinsic protein fluorescence: saturating ligand
T1 sequence (O57883 1-235): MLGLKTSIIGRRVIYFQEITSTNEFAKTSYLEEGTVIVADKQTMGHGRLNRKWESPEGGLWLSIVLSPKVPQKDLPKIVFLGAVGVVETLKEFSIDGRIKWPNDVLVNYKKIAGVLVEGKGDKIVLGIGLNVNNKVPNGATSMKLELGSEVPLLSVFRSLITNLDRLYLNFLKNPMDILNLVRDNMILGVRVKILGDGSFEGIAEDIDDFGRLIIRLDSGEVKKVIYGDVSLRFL

[2] = system: E. coli BPL; conditions: bio-5′-AMP synthesis; cited from earlier work
[3] = molecular target: T1, Pyrococcus horikoshii biotin protein ligase (PhBPL); test: Isothermal titration calorimetry of PhBPL with biotin; format: binding
[4] = molecular target: the molecule itself; test: AUC
[5] = KD, 20°C, Standard Buffer pH 7.5
[6] = KD, 30°C, Standard Buffer pH 7.5
[7] = KD, 40°C, Standard Buffer pH 7.5
[8] = KD, 50°C, Standard Buffer pH 7.5

Work on `Nc1ncnc2c1ncn2[C@@H]1O[C@H](COP(=O)(O)OP(=O)(O)OP(=O)(O)O)[C@@H](O)[C@H]1O` [ATP, adenosine 5′-triphosphate] yielded a Kd [1, 5] of 240 µM, a Kd [1, 6] of 290 µM and a Kd [1, 7] of 300 µM. For the same molecule, the Kd [1, 8] was 430 µM, the Kd ([1]; KD, temperature range of 20-50°C) was 200 to 400 µM and the “blue shift of emission maximum” value [1] was “approximately 5 nm”. For the same molecule, the “quenching of intrinsic protein fluorescence” value [1] was 60%, the “binding enthalpy (van’t Hoff analysis)” value ([1]; titrations from 20 to 50°C) was -3.5 ± 1.5 kcal/mol and the Km [2] was ~3000 µM.

For `O=C(O)CCCC[C@@H]1SC[C@@H]2NC(=O)N[C@@H]21` [Biotin, d-biotin], the “equilibrium association constant by ITC” value ([3]; 20°C, direct titration) was “identical to that measured by fluorescence titrations”, the heat capacity change ([3]; temperature-dependence of binding by ITC) was 5±14 cal/mole·K and the Kd ([1]; KD, 10°C, Standard Buffer pH 7.5) was 0.12 µM. For the same molecule, the Kd [1, 5] was 0.2 µM, the Kd [1, 6] was 0.2 µM and the Kd [1, 7] was 0.51 µM. For the same molecule, the Kd [1, 8] was 0.39 µM, the “increase of equilibrium dissociation constant with temperature” value ([1]; from 10°C to 50°C) was “approximately four fold” and the “blue shift of emission maximum” value [1] was “approximately 5 nm”. For the same molecule, the “quenching of intrinsic protein fluorescence” value [1] was 30% and the “enthalpy of binding (van’t Hoff analysis)” value ([1]; titrations from 10 to 50°C) was -4.4 ± 0.2 kcal/mol and -4.4 kcal/mol.

For `Nc1ncnc2c1ncn2C1OC(COP(=O)(O)CP(=O)(O)OP(=O)(O)O)C(O)C1O` (stereo not drawn) [AMPCPP, α,β-methyleneadenosine 5′-triphosphate], the Kd ([1]; 20°C, Standard Buffer pH 7.5) was 150 µM, the Kd ([1]; 20°C, titrated into PhBPL saturated with biotin) was 140 µM and the “ΔG°” value ([1]; 20°C, titrated into PhBPL saturated with biotin, ΔG°= RTlnKD) was -5.1 ± 0.1 kcal/mol.

B1: Pyrococcus horikoshii Biotin Protein Ligase (enzyme)
chain: T1 sequence (O57883 1-235)
In the case of B1, the “stoichiometry N” value [4] is reported as 2.
